Laboratory results published in paper PMC10604444, “Extra-Synaptic GABAA Receptor Potentiation and Neurosteroid-Induced Learning Deficits Are Inhibited by GR3027, a GABAA Modulating Steroid Antagonist” (Biomolecules, 2023).
Read-outs that look alike come from different tables or passages of the source.

What was measured:
[1] = target: T1, human α5β3γ2L GABAA receptors expressed in HEK-293 cells (Homo sapiens, UniProt P28472+P31644); assay: Whole-cell patch clamp of GABA/THDOC-evoked currents, extra-synaptic protocol (Dynaflow); format: cell-based; details: for Current with GR3027 alone: baseline holding current +2.15 ± 1.4 pA, n = 9, not significant
T1 construct: The coding regions of the human GABAA receptor subunits were then amplified by PCR; expressed in transfected cells; host or cells: HEK-293 (permanently transfected, pcDNA3.1 vectors, CMV promoter)
T1 sequence (P31644 32-462): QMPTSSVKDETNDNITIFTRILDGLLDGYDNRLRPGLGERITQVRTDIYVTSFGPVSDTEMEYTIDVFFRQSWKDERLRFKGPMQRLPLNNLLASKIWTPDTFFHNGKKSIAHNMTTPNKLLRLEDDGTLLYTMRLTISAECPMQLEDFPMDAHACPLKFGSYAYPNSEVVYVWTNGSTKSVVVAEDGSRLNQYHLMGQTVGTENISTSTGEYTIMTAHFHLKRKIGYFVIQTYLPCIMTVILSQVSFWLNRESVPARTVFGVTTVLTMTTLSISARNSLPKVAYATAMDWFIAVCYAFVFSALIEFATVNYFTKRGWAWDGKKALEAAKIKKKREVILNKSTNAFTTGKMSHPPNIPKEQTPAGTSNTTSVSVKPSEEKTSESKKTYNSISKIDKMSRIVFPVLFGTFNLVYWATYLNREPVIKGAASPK
T1 sequence (P28472 26-473 isoform P28472-2 limits assumed): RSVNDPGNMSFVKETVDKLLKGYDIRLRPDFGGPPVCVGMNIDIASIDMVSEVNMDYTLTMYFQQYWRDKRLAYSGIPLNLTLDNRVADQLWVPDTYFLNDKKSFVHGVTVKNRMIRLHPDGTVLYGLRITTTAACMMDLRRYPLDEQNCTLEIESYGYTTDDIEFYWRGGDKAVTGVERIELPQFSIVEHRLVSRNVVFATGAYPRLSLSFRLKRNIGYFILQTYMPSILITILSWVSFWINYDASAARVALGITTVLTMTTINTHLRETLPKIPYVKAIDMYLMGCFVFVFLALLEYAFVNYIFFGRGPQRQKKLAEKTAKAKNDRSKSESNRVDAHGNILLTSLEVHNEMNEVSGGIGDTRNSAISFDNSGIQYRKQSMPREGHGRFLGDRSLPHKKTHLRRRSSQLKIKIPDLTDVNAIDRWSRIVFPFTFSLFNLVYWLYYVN
T1 sequence (P18507 40-475 partner): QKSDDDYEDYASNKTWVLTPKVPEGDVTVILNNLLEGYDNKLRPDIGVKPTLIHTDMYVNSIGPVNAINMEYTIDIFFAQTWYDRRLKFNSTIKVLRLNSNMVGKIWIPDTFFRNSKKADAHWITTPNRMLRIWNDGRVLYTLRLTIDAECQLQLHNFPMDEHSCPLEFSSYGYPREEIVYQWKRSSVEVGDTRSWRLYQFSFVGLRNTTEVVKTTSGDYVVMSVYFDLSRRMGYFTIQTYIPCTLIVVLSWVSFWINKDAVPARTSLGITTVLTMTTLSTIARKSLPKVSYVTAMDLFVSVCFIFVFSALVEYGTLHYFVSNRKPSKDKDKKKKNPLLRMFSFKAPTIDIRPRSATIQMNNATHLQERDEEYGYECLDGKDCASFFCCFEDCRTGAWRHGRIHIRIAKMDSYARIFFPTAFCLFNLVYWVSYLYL
Source text: (§1) Wild-type HEK-293 cells (passage 4, originating from Pasteur Institute, Paris, France) were permanently transfected with vectors including the human CMV promoter for the constitutive expression of the human α5, β3, and γ2L GABAA receptor subunits (α5β3γ2L) or the human α1, β2, and γ2L GABAA receptor subunits (α1β2γ2L). The production of the plasmids used in the sub-cloning of the different subunits is published in Rahman et al..
(§2) The electrophysiological recordings from HEK-293 cells were performed with the whole-cell voltage clamp technique, at room temperature (21–23 °C). After compensation for liquid junction potential, a steady holding potential of −17 mV was used in all experiments. Patch pipettes were pulled from borosilicate glass (Bergman Labora AB, Danderyd, Sweden) and polished to a resistance of 2–5 MΩ when filled with intracellular solution and immersed in a bath (extracellular) solution (for solutions, see below). The pipette tips were filled by immersion in standard intracellular solution and subsequent back-filling with intracellular solution. The recordings were made using an Axopatch 200B amplifier and a Digidata 1322A (Axon Instruments, Foster City, CA, USA) controlled via a Pentium processor-based personal computer. Data were acquired using the pCLAMP software sampled at 10 kHz, filtered at 2–10 kHz, and analyzed with Clampfit (versions 9.0, both from Axon Instruments, Foster City, CA, USA). A series resistance between the pipette and cell membrane not higher than 20 MΩ was accepted. No series resistance compensation was used. The stability of series resistance was monitored repeatedly from the time course of capacitative transients during the experiments. The measured liquid junction potential between extracellular and intracellular solutions was subtracted from all data presented, as previously described. All experiments were performed at room temperature (21–23 °C).
(§3) In all electrophysiological experiments, tetrahydro-deoxycorticosterone (THDOC) was used as a positive GABAA receptor steroid modulator (PAM) to mimic the effect of AP on central GABAA channels. […] THDOC (Sigma Chemical Co., St. Louis, MO, USA) and GR3027 (3α-ethynyl, 3β-hydroxyl, 5α-androstan-17-oxime, golexanolone, Umecrine Cognition AB, Stockholm, Sweden) were dissolved in dimethyl sulfoxide (DMSO) using ultrasound, for the preparation of solutions containing a final DMSO concentration of 0.1%. GR3027 was discovered within a series of molecules developed and patented by T. Bäckström and G. Ragagnin, (patent WO 2008/063128). All solutions were complemented with DMSO to achieve the same final concentration as in the steroid-containing test solution. GABA (Sigma Chemical Co., St. Louis, MO, USA) was first prepared as a stock solution (dissolved in EC with ultrasonic treatment) to the desired concentrations, with the corresponding final concentrations of test solutions (30 µM and 0.3 µM; see protocols below). GABA was added to the experimental solution without a change in osmolarity.
(§4) The experimental protocols were designed to mimic the physiological conditions of the tonic (extra-synaptic) and phasic (synaptic) activation of GABAA receptors observed in central neurons, depending on the subunit compositions, respectively. GABA-evoked currents in HEK-293 cells expressing extra-synaptic (α5β3γ2L) or synaptic (α1β2γ2L) types of GABAA receptors were studied using the conventional whole-cell patch clamp technique. To mimic the physiological GABA exposure, the HEK-293 cells expressing α1β2γ2L GABAA receptors were exposed to short applications (40 ms) of 30 µM GABA, whereas HEK-293 cells expressing α5β3γ2L GABAA receptors were exposed to prolonged applications (6 s) of 0.3 µM GABA, either in the absence or presence of THDOC and/or GR3027.

[2] = tested on: patients with hepatic encephalopathy; set-up: method as in PMID 33894327; details: humans; cited from earlier work
[3] = target: T2, human α1β2γ2L GABAA receptors expressed in HEK-293 cells (Homo sapiens, UniProt P14867+P47870); assay: Whole-cell patch clamp of GABA/THDOC-evoked currents, synaptic protocol (Dynaflow); format: cell-based; details: for Reduction of AUC of THDOC-induced GABA response: n = 8, p ≤ 0.05
T2 construct: The coding regions of the human GABAA receptor subunits were then amplified by PCR; expressed in transfected cells; host or cells: HEK-293 (permanently transfected, pcDNA3.1 vectors, CMV promoter)
T2 sequence (P14867 28-456): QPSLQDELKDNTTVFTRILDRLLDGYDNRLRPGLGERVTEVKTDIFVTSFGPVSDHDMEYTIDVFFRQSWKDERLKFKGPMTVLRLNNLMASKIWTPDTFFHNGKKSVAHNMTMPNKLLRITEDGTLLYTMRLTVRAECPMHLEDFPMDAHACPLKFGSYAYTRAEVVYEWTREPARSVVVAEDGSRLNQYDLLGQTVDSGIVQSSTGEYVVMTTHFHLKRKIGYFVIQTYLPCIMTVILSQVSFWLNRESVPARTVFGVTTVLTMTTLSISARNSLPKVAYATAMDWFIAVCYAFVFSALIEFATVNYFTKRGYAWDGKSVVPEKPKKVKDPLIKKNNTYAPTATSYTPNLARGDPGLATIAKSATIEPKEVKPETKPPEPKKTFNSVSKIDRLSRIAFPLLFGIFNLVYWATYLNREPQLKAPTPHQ
T2 sequence (P47870 25-512 limits assumed): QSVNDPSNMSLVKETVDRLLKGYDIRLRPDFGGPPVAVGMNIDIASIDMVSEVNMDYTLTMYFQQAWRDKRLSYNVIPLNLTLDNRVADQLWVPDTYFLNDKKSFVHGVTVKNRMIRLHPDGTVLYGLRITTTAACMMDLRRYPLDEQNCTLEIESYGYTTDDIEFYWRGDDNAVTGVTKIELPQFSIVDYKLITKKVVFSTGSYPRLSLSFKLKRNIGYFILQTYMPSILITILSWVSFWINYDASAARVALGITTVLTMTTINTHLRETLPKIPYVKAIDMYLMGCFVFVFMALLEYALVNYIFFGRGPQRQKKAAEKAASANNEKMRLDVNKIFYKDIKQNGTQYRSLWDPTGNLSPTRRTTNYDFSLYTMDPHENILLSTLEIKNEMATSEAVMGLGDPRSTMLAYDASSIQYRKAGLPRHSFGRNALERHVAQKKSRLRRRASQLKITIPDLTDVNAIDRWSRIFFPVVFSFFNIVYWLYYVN
T2 sequence (P18507 40-475 partner): as the sequence (P18507 40-475 partner) above
Source text: as §1, §2, §3, §4

## C#C[C@]1(O)CC[C@@]2(C)[C@@H](CC[C@@H]3[C@@H]2CC[C@]2(C)/C(=N/O)CC[C@@H]32)C1 [GR3027, 3α-ethynyl-3β-hydroxyl-5α-androstan-17-oxime]
[1]
  IC50: 344 nM
[1]; 200 nM THDOC + 0.3 µM GABA
  Imax for decrease of AUC of THDOC-potentiated GABA-mediated response: −35%
  Imax for decrease of peak current amplitude of THDOC-potentiated GABA-mediated response: −37%
[1]; 200 nM THDOC, absence of GABA
  Imax for reduction of THDOC-mediated outward current shift: −33%
[1]; 1 µM GR3027 + 0.3 µM GABA, absence of THDOC, SEM 0.9, p = 0.02, n = 7
  Mean change of peak current amplitude of GABA-mediated response: −7.0%
[1]; 1 µM GR3027 + 0.3 µM GABA, absence of THDOC, SEM 1.5, NS, n = 7
  Mean change of AUC of GABA-mediated response: −3.8%
[1]; 1 µM GR3027, 1 µM THDOC
  Effect on THDOC-induced current response (absence of GABA): significantly reduced
[1]; 1 µM GR3027, absence of THDOC
  Effect on baseline holding current: did not change the baseline holding current
[1]; 1 µM GR3027, no GABA or THDOC
  Current with GR3027 alone: +1.6 ± 1.4 pA
[1]; 3 µM GR3027, no GABA or THDOC
  Current with GR3027 alone: +0.73 ± 0.4 pA
[1]; 3 µM GR3027, 0.1, 0.3, 0.6 and 1 µM THDOC
  Effect on THDOC-induced current response (absence of GABA): significantly reduced
[1]; IC50 for decrease of AUC of THDOC-potentiated GABA-mediated response, 200 nM THDOC + 0.3 µM GABA, n = 4-14
  IC50: 341 nM
[1]; IC50 for decrease of peak current amplitude of THDOC-potentiated GABA-mediated response, 200 nM THDOC + 0.3 µM GABA, n = 4-14
  IC50: 563 nM
[2]
  Effect in patients with hepatic encephalopathy: improves EEG, vigilance, and cognition
[3]; 1 µM GR3027 + 200 nM THDOC + 30 µM GABA (40 ms)
  Reduction of AUC of THDOC-induced GABA response: −11.6 ± 3.1
[3]; 1 µM GR3027 + 30 µM GABA, no THDOC, NS, n = 21
  Change of AUC of GABA-mediated current, GR3027 alone: –3.1 ± 1.7%
[3]; 3 µM GR3027 + 200 nM THDOC + 30 µM GABA (40 ms)
  Reduction of AUC of THDOC-induced GABA response: −22.9 ± 2.8
[3]; 3 µM GR3027, 200 nM THDOC, absence of GABA, n = 7, p ≤ 0.05
  Decrease in THDOC-mediated baseline holding current shift: −38.1 ± 7.6%
[3]; GR3027 alone, no THDOC
  Effect on baseline holding current or 30 µM GABA-mediated currents, GR3027 alone: No difference
[3]; GR3027 below 1 µM (tested from 0.1 µM), 200 nM THDOC + 30 µM GABA
  Effect on THDOC-induced GABA currents at lower concentrations: no reduction
